Species on record: Rattus norvegicus
Test: DrugMatrix - Regimen: Daily Repeat
Assay type: toxicity, organism-based, Sprague-Dawley
Parameters: regimen Daily Repeat, gender Male, age 6-8 weeks
Settings: in vivo, po, route oral GAVAGE, vehicle 100 % WATER; for ABSOLUTE BASOPHIL / ABSOLUTE EOSINOPHIL / ABSOLUTE LYMPHOCYTE / ABSOLUTE MONOCYTE / ABSOLUTE SEGMENTED NEUTROPHIL / BASOPHIL / EOSINOPHIL / ERYTHROCYTE COUNT / HEMATOCRIT / HEMOGLOBIN / LEUKOCYTE COUNT / LYMPHOCYTE / MEAN CORPUSCULAR HEMOGLOBIN / MEAN CORPUSCULAR HEMOGLOBIN CONCENTRATION / MEAN CORPUSCULAR VOLUME / MONOCYTE / NEUTROPHIL / NUCLEATED RED BLOOD CELLS / PLATELET COUNT: tissue Blood; for ALANINE AMINOTRANSFERASE / ALBUMIN / ALKALINE PHOSPHATASE / ASPARTATE AMINOTRANSFERASE / BLOOD UREA NITROGEN / CARBON DIOXIDE / CHLORIDE / CHOLESTEROL / CREATINE PHOSPHOKINASE / CREATININE / GLUCOSE / LACTATE DEHYDROGENASE / LIPASE / PHOSPHORUS / POTASSIUM / SODIUM / TOTAL BILIRUBIN / TOTAL PROTEIN / URIC ACID: tissue Plasma
[1] = 1 mg/kg, 72 h, dose level Low, time 3 day
[2] = 1 mg/kg, 120 h, dose level Low, time 5 day
[3] = 84 mg/kg, 72 h, dose level High, time 3 day
[4] = 84 mg/kg, 120 h, dose level High, time 5 day

Compound: Cc1nccn1CC1CCc2c(c3ccccc3n2C)C1=O (configuration not stated) [ONDANSETRON]
- ABSOLUTE BASOPHIL [1]: 0 CELLS/uL
- ABSOLUTE EOSINOPHIL [1]: 0 CELLS/uL
- ABSOLUTE LYMPHOCYTE [1]: 12419.33 CELLS/uL
- ABSOLUTE MONOCYTE [1]: 325.33 CELLS/uL
- ABSOLUTE SEGMENTED NEUTROPHIL [1]: 1155.33 CELLS/uL
- BASOPHIL [1]: 0%
- EOSINOPHIL [1]: 0%
- ERYTHROCYTE COUNT [1]: 5.53 x10E6/uL
- HEMATOCRIT [1]: 34.87%
- HEMOGLOBIN [1]: 13.27 G/DL
- LEUKOCYTE COUNT [1]: 13.9 x10E3/uL
- LYMPHOCYTE [1]: 89.33%
- MEAN CORPUSCULAR HEMOGLOBIN [1]: 24 pg
- MEAN CORPUSCULAR HEMOGLOBIN CONCENTRATION [1]: 38.07 G/DL
- MEAN CORPUSCULAR VOLUME [1]: 63.03 fL
- MONOCYTE [1]: 2.33%
- NEUTROPHIL [1]: 8.33%
- NUCLEATED RED BLOOD CELLS [1]: 0 /100WBC
- PLATELET COUNT [1]: 1205.67 x10E3/uL
- ALANINE AMINOTRANSFERASE [1]: 50.33 u/L
- ALBUMIN [1]: 4.1 G/DL
- ALKALINE PHOSPHATASE [1]: 392.33 u/L
- ASPARTATE AMINOTRANSFERASE [1]: 92 u/L
- BLOOD UREA NITROGEN [1]: 15.67 mg/dL
- CARBON DIOXIDE [1]: 24.33 mmol/L
- CHLORIDE [1]: 104 MEQ/L
- CHOLESTEROL [1]: 74.33 mg/dL
- CREATINE PHOSPHOKINASE [1]: 345 u/L
- CREATININE [1]: 0.17 mg/dL
- GLUCOSE [1]: 165.33 mg/dL
- LACTATE DEHYDROGENASE [1]: 421 u/L
- LIPASE [1]: 9.67 u/L
- PHOSPHORUS [1]: 14.47 mg/dL
- POTASSIUM [1]: 6.65 MEQ/L
- SODIUM [1]: 147.47 MEQ/L
- TOTAL BILIRUBIN [1]: 0.17 mg/dL
- TOTAL PROTEIN [1]: 5.77 G/DL
- URIC ACID [1]: 1.8 mg/dL
- ABSOLUTE BASOPHIL [2]: 0 CELLS/uL
- ABSOLUTE EOSINOPHIL [2]: 0 CELLS/uL
- ABSOLUTE LYMPHOCYTE [2]: 15703.33 CELLS/uL
- ABSOLUTE MONOCYTE [2]: 57.67 CELLS/uL
- ABSOLUTE SEGMENTED NEUTROPHIL [2]: 1439 CELLS/uL
- BASOPHIL [2]: 0%
- EOSINOPHIL [2]: 0%
- ERYTHROCYTE COUNT [2]: 5.66 x10E6/uL
- HEMATOCRIT [2]: 36.67%
- HEMOGLOBIN [2]: 14.17 G/DL
- LEUKOCYTE COUNT [2]: 17.2 x10E3/uL
- LYMPHOCYTE [2]: 91.33%
- MEAN CORPUSCULAR HEMOGLOBIN [2]: 25.07 pg
- MEAN CORPUSCULAR HEMOGLOBIN CONCENTRATION [2]: 38.6 G/DL
- MEAN CORPUSCULAR VOLUME [2]: 64.9 fL
- MONOCYTE [2]: 0.33%
- NEUTROPHIL [2]: 8.33%
- NUCLEATED RED BLOOD CELLS [2]: 0 /100WBC
- PLATELET COUNT [2]: 1456 x10E3/uL
- ALANINE AMINOTRANSFERASE [2]: 55 u/L
- ALBUMIN [2]: 4.43 G/DL
- ALKALINE PHOSPHATASE [2]: 362 u/L
- ASPARTATE AMINOTRANSFERASE [2]: 77.33 u/L
- BLOOD UREA NITROGEN [2]: 17 mg/dL
- CARBON DIOXIDE [2]: 29 mmol/L
- CHLORIDE [2]: 100.33 MEQ/L
- CHOLESTEROL [2]: 72 mg/dL
- CREATINE PHOSPHOKINASE [2]: 162.67 u/L
- CREATININE [2]: 0.18 mg/dL
- GLUCOSE [2]: 160.33 mg/dL
- LACTATE DEHYDROGENASE [2]: 160.67 u/L
- LIPASE [2]: 10.33 u/L
- PHOSPHORUS [2]: 14.4 mg/dL
- POTASSIUM [2]: 6.83 MEQ/L
- SODIUM [2]: 146.07 MEQ/L
- TOTAL BILIRUBIN [2]: 0.2 mg/dL
- TOTAL PROTEIN [2]: 6.17 G/DL
- URIC ACID [2]: 1.7 mg/dL
- ABSOLUTE BASOPHIL [3]: 0 CELLS/uL
- ABSOLUTE EOSINOPHIL [3]: 113.33 CELLS/uL
- ABSOLUTE LYMPHOCYTE [3]: 15932.67 CELLS/uL
- ABSOLUTE MONOCYTE [3]: 298.67 CELLS/uL
- ABSOLUTE SEGMENTED NEUTROPHIL [3]: 1422 CELLS/uL
- BASOPHIL [3]: 0%
- EOSINOPHIL [3]: 0.67%
- ERYTHROCYTE COUNT [3]: 5.63 x10E6/uL
- HEMATOCRIT [3]: 35.6%
- HEMOGLOBIN [3]: 14.17 G/DL
- LEUKOCYTE COUNT [3]: 17.77 x10E3/uL
- LYMPHOCYTE [3]: 90%
- MEAN CORPUSCULAR HEMOGLOBIN [3]: 25.3 pg
- MEAN CORPUSCULAR HEMOGLOBIN CONCENTRATION [3]: 39.83 G/DL
- MEAN CORPUSCULAR VOLUME [3]: 63.53 fL
- MONOCYTE [3]: 1.67%
- NEUTROPHIL [3]: 7.67%
- NUCLEATED RED BLOOD CELLS [3]: 0 /100WBC
- PLATELET COUNT [3]: 1296 x10E3/uL
- ALANINE AMINOTRANSFERASE [3]: 62.67 u/L
- ALBUMIN [3]: 4.27 G/DL
- ALKALINE PHOSPHATASE [3]: 366.67 u/L
- ASPARTATE AMINOTRANSFERASE [3]: 100.67 u/L
- BLOOD UREA NITROGEN [3]: 14.67 mg/dL
- CARBON DIOXIDE [3]: 26.67 mmol/L
- CHLORIDE [3]: 101.33 MEQ/L
- CHOLESTEROL [3]: 73.67 mg/dL
- CREATINE PHOSPHOKINASE [3]: 312.67 u/L
- CREATININE [3]: 0.28 mg/dL
- GLUCOSE [3]: 150 mg/dL
- LACTATE DEHYDROGENASE [3]: 488.67 u/L
- LIPASE [3]: 9.67 u/L
- PHOSPHORUS [3]: 13.83 mg/dL
- POTASSIUM [3]: 7.1 MEQ/L
- SODIUM [3]: 145.17 MEQ/L
- TOTAL BILIRUBIN [3]: 0.17 mg/dL
- TOTAL PROTEIN [3]: 5.87 G/DL
- URIC ACID [3]: 1.77 mg/dL
- ABSOLUTE BASOPHIL [4]: 0 CELLS/uL
- ABSOLUTE EOSINOPHIL [4]: 0 CELLS/uL
- ABSOLUTE LYMPHOCYTE [4]: 12972 CELLS/uL
- ABSOLUTE MONOCYTE [4]: 0 CELLS/uL
- ABSOLUTE SEGMENTED NEUTROPHIL [4]: 828 CELLS/uL
- BASOPHIL [4]: 0%
- EOSINOPHIL [4]: 0%
- ERYTHROCYTE COUNT [4]: 5.39 x10E6/uL
- HEMATOCRIT [4]: 33.4%
- HEMOGLOBIN [4]: 13.9 G/DL
- LEUKOCYTE COUNT [4]: 13.8 x10E3/uL
- LYMPHOCYTE [4]: 94%
- MEAN CORPUSCULAR HEMOGLOBIN [4]: 25.8 pg
- MEAN CORPUSCULAR HEMOGLOBIN CONCENTRATION [4]: 41.6 G/DL
- MEAN CORPUSCULAR VOLUME [4]: 61.9 fL
- MONOCYTE [4]: 0%
- NEUTROPHIL [4]: 6%
- NUCLEATED RED BLOOD CELLS [4]: 0 /100WBC
- PLATELET COUNT [4]: 1460 x10E3/uL
- ALANINE AMINOTRANSFERASE [4]: 63 u/L
- ALBUMIN [4]: 4.2 G/DL
- ALKALINE PHOSPHATASE [4]: 265 u/L
- ASPARTATE AMINOTRANSFERASE [4]: 62 u/L
- BLOOD UREA NITROGEN [4]: 20 mg/dL
- CARBON DIOXIDE [4]: 30 mmol/L
- CHLORIDE [4]: 103 MEQ/L
- CHOLESTEROL [4]: 69 mg/dL
- CREATINE PHOSPHOKINASE [4]: 151 u/L
- CREATININE [4]: 0.29 mg/dL
- GLUCOSE [4]: 150 mg/dL
- LACTATE DEHYDROGENASE [4]: 89 u/L
- LIPASE [4]: 10 u/L
- PHOSPHORUS [4]: 11.8 mg/dL
- POTASSIUM [4]: 6.81 MEQ/L
- SODIUM [4]: 145.9 MEQ/L
- TOTAL BILIRUBIN [4]: 0.1 mg/dL
- TOTAL PROTEIN [4]: 6.2 G/DL
- URIC ACID [4]: 1.4 mg/dL

Reference: ChEMBL document CHEMBL3885881, “DrugMatrix”
